Test results reported in ChEMBL document CHEMBL4354794, “Potential Anticancer Agents Characterized from Selected Tropical Plants” (J Nat Prod, 2019).
One block for each compound: values may come before it.

Key:
[1] = tested on: SK-OV-3; experiment: Antiproliferative activity against human SKOV3 cells assessed as reduction in cell viability after 48 hrs by CCK8 assay; assay type: functional, cell-based; conditions: SK-OV-3, 48 h
[2] = tested on: OVCAR-3; experiment: Antiproliferative activity against human OVCAR3 cells assessed as reduction in cell viability after 48 hrs by CCK8 assay; assay type: functional, cell-based; conditions: OVCAR-3, 48 h
[3] = tested on: OVCAR-3; experiment: Antiproliferative activity against human OVCAR3 cells assessed as reduction in cell viability; assay type: functional, cell-based
[4] = tested on: OVCAR-8; experiment: Antiproliferative activity against human OVCAR8 cells assessed as reduction in cell viability; assay type: functional, cell-based
[5] = tested on: HT-29; experiment: Antiproliferative activity against human HT-29 cells assessed as reduction in cell viability; assay type: functional, cell-based
[6] = Inhibition of chymotrypsin-like proteasome (unknown origin) using Suc-LLVY-AMC as substrate by fluorescence based assay; design: species or system Homo sapiens
[7] = tested on: HT-29; experiment: Antiproliferative activity against human HT-29 cells assessed as reduction in cell viability after 3 days by SRB assay; assay type: functional, cell-based; conditions: HT-29, 72 h
[8] = tested on: HeLa; experiment: Antiproliferative activity against human HeLa cells assessed as reduction in cell viability; assay type: functional, cell-based
[9] = tested on: KB; experiment: Antiproliferative activity against human KB cells assessed as reduction in cell viability; assay type: functional, cell-based
[10] = tested on: HEp-2; experiment: Antiproliferative activity against human Hep2 cells by MTT assay; assay type: functional, cell-based
[11] = tested on: KB; experiment: Antiproliferative activity against human KB/HeLa cells assessed as reduction in cell viability; assay type: functional, cell-based
[12] = tested on: DU-145; experiment: Antiproliferative activity against human DU145 cells assessed as reduction in viability after 48 hrs by MTTS assay; assay type: functional, cell-based; conditions: DU-145, 48 h
[13] = tested on: KB-V1; experiment: Antiproliferative activity against human KBV1 cells assessed as reduction in cell viability; assay type: functional; conditions: read-out: ED50 (the source's name)
[14] = Antiproliferative activity against human U373 cells assessed as reduction in cell viability; assay type: functional, U-373MG ATCC; conditions: U373 MG, read-out: ED50 (the source's name)
[15] = Antiproliferative activity against human BC1 cells assessed as reduction in cell viability; assay type: functional; conditions: read-out: ED50 (the source's name)
[16] = tested on: HT; experiment: Antiproliferative activity against human HT cells assessed as reduction in cell viability; assay type: functional; conditions: read-out: ED50 (the source's name)
[17] = tested on: P388; experiment: Antiproliferative activity against mouse P388 cells assessed as reduction in cell viability; assay type: functional, cell-based; conditions: read-out: ED50 (the source's name)
[18] = tested on: Col2; experiment: Antiproliferative activity against human Col2 cells assessed as reduction in cell viability; assay type: functional, cell-based
[19] = tested on: A-431; experiment: Antiproliferative activity against human A431 cells assessed as reduction in cell viability; assay type: functional; conditions: read-out: ED50 (the source's name)
[20] = molecular target: Tyrosine-protein phosphatase non-receptor type 1 (Homo sapiens, UniProt P18031); experiment: Inhibition of recombinant human PTP1B (1 to 322 residues) expressed in Escherichia coli assessed as reduction in p-nitrophenol formation using p-nitrophenyl phosphate as substrate incubated for 30 mins by spectrophotometric method
[21] = Toxicity in po dosed mouse; assay type: organism-based; conditions: in vivo
[22] = tested on: HL-60; experiment: Antiproliferative activity against human HL60 cells assessed as reduction in cell viability after 3 days by trypan blue dye based hemocytometer counting method; assay type: functional; conditions: HL-60, 72 h
[23] = tested on: MDA-MB-231; experiment: Antitumour activity against human MDA-MB-231 cells xenografted in Nu/Nu mouse at 10 mg/kg, iv for 6 times at 2 days interval; assay type: functional
[24] = Antiproliferative activity against human Ben-Men-1 cells incubated for 72 hrs by resazurin dye based fluorescence assay; assay type: functional, cell-based
[25] = Antiproliferative activity against mouse Sch10545 cells incubated for 72 hrs by resazurin dye based fluorescence assay; assay type: functional, cell-based
[26] = tested on: SK-HEP1; experiment: Cytotoxicity against human SKHEP1 cells assessed as reduction in viability; assay type: functional, cell-based
[27] = tested on: WRL68; experiment: Cytotoxicity against human WRL68 cells assessed as reduction in viability; assay type: cell-based

Chain of Tyrosine-protein phosphatase non-receptor type 1 (P18031 whole entry, the tested form may be a part): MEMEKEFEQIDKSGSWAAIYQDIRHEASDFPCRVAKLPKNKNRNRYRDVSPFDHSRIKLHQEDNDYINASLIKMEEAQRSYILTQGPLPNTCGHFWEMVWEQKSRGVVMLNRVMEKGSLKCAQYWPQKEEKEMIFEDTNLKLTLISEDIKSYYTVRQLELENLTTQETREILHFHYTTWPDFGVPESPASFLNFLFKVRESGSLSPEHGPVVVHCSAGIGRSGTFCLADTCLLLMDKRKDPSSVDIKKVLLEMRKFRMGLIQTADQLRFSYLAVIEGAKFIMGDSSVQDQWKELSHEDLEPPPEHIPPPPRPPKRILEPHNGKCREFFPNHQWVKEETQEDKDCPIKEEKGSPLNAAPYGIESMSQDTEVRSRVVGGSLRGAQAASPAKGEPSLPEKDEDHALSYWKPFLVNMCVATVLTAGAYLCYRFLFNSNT

IC50 [1]: > 10 µM | IC50 [2]: > 10 µM
SMILES: O=c1c2cc(O)ccc2oc2cccc(O)c12

SMILES: COc1cc2c(O[C@@H]3O[C@H](CO)[C@@H]4OC(C)(C)O[C@@H]4[C@H]3O)c3c(c(-c4ccc5c(c4)OCO5)c2cc1OC)C(=O)OC3
IC50 [3]: 0.0042 µM | IC50 [4]: 0.004 µM | IC50 [5]: 0.043 µM

IC50 [6]: 1.3 µM | IC50 [7]: > 10 µM
SMILES: O=C1c2c(O)cc(O)cc2O[C@@H](c2ccc(O)cc2)[C@@H]1c1c(O)cc(O)c2c(=O)cc(-c3ccc(O)c(O)c3)oc12

IC50 [8]: > 10 µM
SMILES: O=c1cc(-c2ccc(O)c(-c3c(O)cc(O)c4c(=O)cc(-c5ccc(O)cc5)oc34)c2)oc2cc(O)cc(O)c12 [AMENTOFLAVONE]

SMILES: CC[C@H](CC[C@@H](C)[C@H]1CC[C@H]2[C@@H]3CC=C4C[C@@H](O)CC[C@]4(C)[C@H]3CC[C@]12C)C(C)C [BETA-SITOSTEROL]
IC50 [9]: > 10 µg/mL | IC50 [10]: 11.4 µM | IC50 [11]: > 242 µM

SMILES: C[C@]12CC[C@H]3[C@@H](CC[C@H]4C[C@@H](O)[C@H](O)C[C@@]43C=O)[C@@]1(O)CC[C@@H]2C1=CC(=O)OC1 [CALOTROPAGENIN]
IC50 [12]: 0.48 µM

SMILES: C[C@@H]1C[C@H](O)[C@]2(O)O[C@@H]3C[C@@]4(C=O)[C@@H](CC[C@@H]5[C@@H]4CC[C@]4(C)[C@@H](C6=CC(=O)OC6)CC[C@]54O)C[C@H]3O[C@@H]2O1 [CALOTROPIN]
IC50 [12]: 0.03 µM

EC50 [13]: 2.14 µM | EC50 [17]: 0.33 to 1.56 µM | IC50 [5]: > 10 µM | EC50 ([11]; read-out: ED50 (the source's name)): 0.33 to 1.56 µM | EC50 [19]: 0.33 to 1.56 µM
SMILES: COc1cc(-c2oc3cc(OC)c(OC)c(O)c3c(=O)c2OC)ccc1O [CHRYSOSPLENOL B]
EC50 [14]: 0.33 to 1.56 µM | EC50 [15]: 0.33 to 1.56 µM | EC50 [16]: 0.33 to 1.56 µM | IC50 [18]: > 10 µg/mL

SMILES: CC(C)=CC[C@]12OC(C)(C)[C@H]3C[C@H](C=C4C(=O)c5c(O)cc(O)cc5O[C@@]431)C2=O [COCHINCHINOXANTHONE]
IC50 [20]: 6.6 µM

SMILES: C[C@H]1O[C@@H](O[C@H]2[C@@H](O)C[C@H](O[C@H]3[C@@H](O)C[C@H](O[C@H]4CC[C@@]5(C)[C@H](CC[C@@H]6[C@@H]5CC[C@]5(C)[C@@H](C7=CC(=O)OC7)CC[C@]65O)C4)O[C@@H]3C)O[C@@H]2C)C[C@H](O)[C@@H]1O [DIGITOXIN]
LD50 [21]: 10 to 80 mg/kg

SMILES: CC(C)=CCC[C@]1(C)C=Cc2c(O)c3c(c(CC=C(C)C)c2O1)O[C@]12C(=C[C@@H]4C[C@H]1C(C)(C)O[C@@]2(C/C=C(/C)C(=O)O)C4=O)C3=O [GAMBOGIC ACID]
IC50 [22]: 0.17 µM | fold change (FC) [23]: 1.31

SMILES: C=C(C)C(=O)O[C@H]1C[C@@]2(C)OC(=CC2=O)/C(CO)=C\[C@H]2OC(=O)C(=C)[C@H]12 [GOIAZENSOLIDE]
IC50 [24]: 1 µM | IC50 [25]: 1 µM

SMILES: COc1c(O)cc2oc3cc(O)c(CC=C(C)C)c(O)c3c(=O)c2c1CC=C(C)C [MANGOSTIN]
IC50 [26]: 19.6 µM | IC50 [27]: 158 µM
